The source of these data is ChEMBL document CHEMBL1128386, “Structure-activity relationships of milrinone analogues determined in vitro in a rabbit heart membrane Ca(2+)-ATPase model” (J Med Chem, 1995).

This test is filed under the species Oryctolagus cuniculus. Put plainly: Activity against [Ca2+]-ATPase assay in rabbit myocardial membrane. The class given is cell membranes. As to conditions: Myocardium.
Turning to `Nc1cc(-c2ccncc2)c[nH]c1=O`, the Activity came to 1.4 µM.
In turn, `Cc1[nH]c(=O)c(C#N)cc1-c1ccncc1` came in with an Activity of 10.7 µM.
Consider `Cc1cnccc1-c1cc(C#N)c(O)nc1C`, for which the Activity is 3.3 µM.
The result for `Cc1cnccc1-c1cnc(O)c(C#N)c1` reads 0.5 µM; that for `Cc1nc(O)c(Br)cc1-c1ccncc1`, 6.6 µM.
The compound `Cc1cnccc1-c1cnc(O)c(N)c1` displayed an Activity of 0.03 µM.
Consider `Cc1nc(O)c(N)cc1-c1ccncc1`, for which the Activity was 6 µM.
